Results: patent US9249112B2, “Solid forms of a transthyretin dissociation inhibitor” (PFIZER INC., priority 2011, dated 2016)

Assays:
Type in all cases: physicochemical
[1] = hygroscopicity of the solid form; details: crystalline form, anhydrous mono-meglumine salt
[2] = solubility in unbuffered water; details: free acid
[3] = gel formation on contact with aqueous vehicles; details: compound alone, on contact with aqueous vehicles such as water, phosphate buffer and hydrochloric acid
From the text: Without wishing to be bound by theory, it appears that such gel formation, upon oral administration, can hinder dissolution and/or bioavailability of such compounds, leading to, for example, stomach compaction and non-proportional plasma levels of drug in the subject as compared to the dose administered. […] Consequently, the pharmaceutical compositions herein are also contemplated for use in or further combination with any conventional formulation or route or method of administration where contact with water or other aqueous vehicles may occur, e.g., contact with blood or other body fluids as in various forms of parenteral administration (e.g., contact with blood in intravenous administration, implants, and the like), contact with mucous membranes (e.g., suppositories via vaginal or rectal administration, dry powder aerosols for pulmonary administration, transdermal patches or lozenges applied to mucous membranes, and the like). In such routes of administration, the benefits of the certain pharmaceutical compositions, such as resistance to gel formation, greater dissolution and bioavailability, dose proportionality, stability to storage, or the like may be beneficial.

hygroscopicity [1]	solubility [2]	gel formation [3]	Compound
non-hygroscopic			6-carboxy-2-(3,5-dichlorophenyl)-benzoxazole meglumine [Compound 1]
	< 11 µg/mL	can form a gel	O=C(O)c1ccc2nc(-c3cc(Cl)cc(Cl)c3)oc2c1 [free acid, 6-carboxy-2-(3,5-dichlorophenyl)-benzoxazole]
